From patent publication US20240261367A1, “CYCLIC PEPTIDE IMMUNOMODULATORS” (priority 2021, published 2024)
Starred links: 1 amine or outer side, 2 acyl side, 3 side chain; linkers in the order of their positions; H or OH if unused. Positions of bridges follow the written chain, without caps; N, C: chain ends. Non-standard residues stand in square brackets, D forms with d. Residues, ends and D or L forms follow the SMILES beside them. *: point of attachment. X2 = COC(=O)CCCCCCCCCCCCCCCCC(=O)N[C@@H](CCC(=O)NCCOCCOCCOCCOCCOCCOCCOCCOCCOCCOCCOCCn1cc(C[C@H](NC(=N)CNC(=O)[C@H](CSCC(=O)[*:1])NC(=N)[C@H](CC(C)C)N[*:2])C(=O)OC)nn1)C(=O)OC; X1 = COC(=O)CCCCCCCCCCCCCCCCC(=O)N[C@@H](CCC(=O)NCCOCCOCCOCCOCCOCCOCCOCCOCCOCCOCCOCCn1cc(C[C@H](NC(=N)CN*)C(=O)O)nn1)C(=O)O; Trp(1-CH2CO2Me) = COC(=O)Cn1cc(C[C@H](N)C(=O)O)c2ccccc21; Trp(1-CH2COOH) = N[C@@H](Cc1cn(CC(=O)O)c2ccccc12)C(=O)O; Hyp = O=C(O)[C@@H]1C[C@@H](O)CN1; NMeNle = CCCC[C@H](NC)C(=O)O; NMeA = CN[C@@H](C)C(=O)O; Dab = NCC[C@H](N)C(=O)O; Dap = NC[C@H](N)C(=O)O

The molecules below were run against T1, PD-1/PD-L1 (Homo sapiens, UniProt Q9NZQ7) (assay: PD-1/PD-L1 Homogenous Time-Resolved Fluorescence (HTRF) binding assay). Details: 10 min incubation.
T1 construct: TVMV protease site linker (C); made in house; host or cells: HEK293T cells
T1 sequence (Q9NZQ7 18-239): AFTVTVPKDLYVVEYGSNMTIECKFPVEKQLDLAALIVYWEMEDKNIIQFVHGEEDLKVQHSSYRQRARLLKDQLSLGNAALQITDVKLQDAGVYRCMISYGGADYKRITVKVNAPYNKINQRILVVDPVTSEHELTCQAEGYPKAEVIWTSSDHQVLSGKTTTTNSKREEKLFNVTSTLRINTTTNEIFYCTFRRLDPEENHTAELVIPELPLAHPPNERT
Source text: Methods for Testing the Ability of Macrocyclic Peptides to Compete for the Binding of PD-1 to PD-L1 Using Homogenous Time-Resolved Fluorescence (HTRF) Binding Assays
The ability of the compounds of formula (I) to bind to PD-L1 was investigated using a PD-1/PD-L1 Homogenous Time-Resolved Fluorescence (HTRF) binding assay.
Homogenous Time-Resolved Fluorescence (HTRF) Binding Assay
The interaction of PD-1 and PD-L1 can be assessed using soluble, purified preparations of the extracellular domains of the two proteins. The PD-1 and PD-L1 protein extracellular domains were expressed as fusion proteins with detection tags, for PD-1, the tag was the Fc portion of Immunoglobulin (PD-1-Ig) and for PD-L1 it was the 6 histidine motif (PD-L1-His). All binding studies were performed in an HTRF assay buffer consisting of dPBS supplemented with 0.1% […] bovine serum albumin and 0.05% (v/v) Tween-20. […] HTRF detection was achieved using europium crypate-labeled anti-Ig (1 nM final) and allophycocyanin (APC) labeled anti-His (20 nM final). Antibodies were diluted in HTRF detection buffer and 5 μl was dispensed on top of the binding reaction. The reaction mixture was allowed to equilibrate for 30 minutes and the resulting signal (665 nm/620 nm ratio) was obtained using an EnVision fluorometer. Additional binding assays were established between the human proteins PD-1-Ig/PD-L2-His (20 & 5 nM, respectively) and CD80-His/PD-L1-Ig (100 & 10 nM, respectively).
Recombinant Proteins: Human PD-1 (25-167) with a C-terminal human Fc domain of immunoglobulin G (Ig) epitope tag [hPD-1 (25-167)-3S-IG] and human PD-L1 (18-239) with a C-terminal His epitope tag [hPD-L1(18-239)-TVMV-His] were expressed in HEK293T cells and purified sequentially by ProteinA affinity chromatography and size exclusion chromatography. Human PD-L2-His and CD80-His was obtained through commercial sources.
Table 1 lists the IC50 values for representative examples of this disclosure measured in the PD-1/PD-L1 Homogenous Time-Resolved Fluorescence (HTRF) binding assay.

SMILES	IC50 [nM]
CCCC[C@H]1C(=O)N(C)[C@@H](CCCC)C(=O)N[C@@H](CC(C)C)C(=O)N[C@H](C(=O)NCC(=O)N[C@@H](Cc2cn(CCOCCOCCOCCOCCOCCOCCOCCOCCOCCOCCOCCNC(=O)CC[C@H](NC(=O)CCCCCCCCCCCCCCCCC(=O)O)C(=O)O)nn2)C(=O)O)CSCC(=O)N[C@@H](Cc2ccc(O)cc2)C(=O)N(C)[C@@H](C)C(=O)N[C@@H](CC(N)=O)C(=O)N2CCC[C@H]2C(=O)N[C@@H](CNC(=O)CC[C@@H](C)[C@H]2CC[C@H]3[C@@H]4[C@H](O)C[C@@H]5C[C@H](O)CC[C@]5(C)[C@H]4C[C@H](O)[C@]23C)C(=O)N[C@@H](CC(C)C)C(=O)N2C[C@H](O)C[C@H]2C(=O)N[C@@H](Cc2c[nH]c3ccccc23)C(=O)N[C@@H](CCN)C(=O)N[C@@H](Cc2cn(CC(=O)O)c3ccccc23)C(=O)N1C [Example 1006]	28

Same assay, conditions: PD-L1-His (10 nM) pre-incubated with inhibitor 15 m, then PD-1-Ig (20 nM)

SMILES	IC50 [nM]
CCCC[C@H]1C(=O)N(C)[C@@H](CCCC)C(=O)N[C@@H](CC(C)C)C(=N)N[C@H](C(=O)NCC(=N)N[C@@H](Cc2cn(CCOCCOCCOCCOCCOCCOCCOCCOCCOCCOCCOCCNC(=O)CC[C@H](NC(=O)CCCCCCCCCCCCCCCCC(=O)OC)C(=O)OC)nn2)C(=O)OC)CSCC(=O)NCC(=O)N(C)[C@@H](C)C(=O)N[C@@H](CC(N)=O)C(=O)N2CCC[C@H]2C(=O)N[C@@H](CN)C(=O)N[C@@H](CC(C)C)C(=O)N2C[C@H](O)C[C@H]2C(=O)N[C@@H](Cc2c[nH]c3ccccc23)C(=O)N[C@@H](CCN)C(=O)N[C@@H](Cc2cn(CC(=O)OC)c3ccccc23)C(=O)N1C [Example 1001] (G[NMeA]NP[Dap]L[Hyp]W[Dab][Trp(1-CH2CO2Me)][NMeNle][NMeNle]; linker N-C via X2)	7.3
CCCC[C@H]1C(=O)N(C)[C@@H](CCCC)C(=O)N[C@@H](CC(C)C)C(=O)N[C@H](C(=O)NCC(=O)N[C@@H](Cc2cn(CCOCCOCCOCCOCCOCCOCCOCCOCCOCCOCCOCCNC(=O)CC[C@H](NC(=O)CCCCCCCCCCCCCCCCC(=O)O)C(=O)O)nn2)C(=O)O)CSCC(=O)N[C@@H](Cc2ccc(O)cc2)C(=O)N(C)[C@@H](C)C(=O)N[C@@H](CC(N)=O)C(=O)N2CCC[C@H]2C(=O)N[C@@H](CNC(=O)OC(C)C)C(=O)N[C@@H](CC(C)C)C(=O)N2C[C@H](O)C[C@H]2C(=O)N[C@@H](Cc2c[nH]c3ccccc23)C(=O)N[C@@H](CCN)C(=O)N[C@@H](Cc2cn(CC(=O)O)c3ccccc23)C(=O)N1C [Example 1003]	9.1
C=C(CC[C@@H]1NC(=O)[C@H](Cc2c[nH]c3ccccc23)NC(=O)[C@@H]2C[C@@H](O)CN2C(=O)[C@H](CC(C)C)NC(=O)[C@H](CNC(=O)CC[C@@H](C)[C@H]2CC[C@H]3[C@@H]4[C@H](O)C[C@@H]5C[C@H](O)CC[C@]5(C)[C@H]4C[C@H](O)[C@]23C)NC(=O)[C@@H]2CCCN2C(=O)[C@H](CC(N)=O)NC(=O)[C@H](C)N(C)C(=O)[C@H](Cc2ccc(O)cc2)NC(=O)CSC[C@@H](C(=O)NCC(=O)N[C@@H](Cc2cn(CCOCCOCCOCCOCCOCCOCCOCCOCCOCCOCCOCCNC(=O)CC[C@H](NC(=O)CCCCCCCCCCCCCCCCC(=O)O)C(=O)O)nn2)C(=O)O)NC(=O)[C@H](CC(C)C)NC(=O)[C@H](CCCC)N(C)C(=O)[C@H](CCCC)N(C)C(=O)[C@H](Cc2cn(CC(=O)O)c3ccccc23)NC1=O)CC[C@@H](C)[C@H]1CC[C@H]2[C@@H]3[C@H](O)C[C@@H]4C[C@H](O)CC[C@]4(C)[C@H]3C[C@H](O)[C@]12C [Example 1004]	200
CCCC[C@H]1C(=O)N(C)[C@@H](CCCC)C(=O)N[C@@H](CC(C)C)C(=O)N[C@H](C(=O)NCC(=N)N[C@@H](Cc2cn(CCOCCOCCOCCOCCOCCOCCOCCOCCOCCOCCOCCNC(=O)CC[C@H](NC(=O)CCCCCCCCCCCCCCCCC(=O)OC)C(=O)O)nn2)C(=O)O)CSCC(=O)N[C@@H](Cc2ccc(O)cc2)C(=O)N(C)[C@@H](C)C(=O)N[C@@H](CC(N)=O)C(=O)N2CCC[C@H]2C(=O)N[C@@H](CN)C(=O)N[C@@H](CC(C)C)C(=O)N2C[C@H](O)C[C@H]2C(=O)N[C@@H](Cc2c[nH]c3ccccc23)C(=O)N[C@@H](CCN)C(=O)N[C@@H](Cc2cn(CC(=O)O)c3ccccc23)C(=O)N1C [Example 1007] ({CH2CO}-Y[NMeA]NP[Dap]L[Hyp]W[Dab][Trp(1-CH2COOH)][NMeNle][NMeNle]LC-X1; thioether N-14)	21

Next, values leading:

IC50 [nM]	SMILES
6.5	CCCC[C@H]1C(=O)N(C)[C@@H](CCCC)C(=O)N[C@@H](CC(C)C)C(=O)N[C@H](C(=O)NCC(=O)N[C@@H](Cc2cn(CCOCCOCCOCCOCCOCCOCCOCCOCCOCCOCCOCCNC(=O)CC[C@H](NC(=O)CCCCCCCCCCCCCCCCC(=O)O)C(=O)O)nn2)C(=O)O)CSCC(=O)N[C@@H](Cc2ccc(O)cc2)C(=O)N(C)[C@@H](C)C(=O)N[C@@H](CC(N)=O)C(=O)N2CCC[C@H]2C(=O)N[C@@H](CNC(=O)OC(C)(C)C)C(=O)N[C@@H](CC(C)C)C(=O)N2C[C@H](O)C[C@H]2C(=O)N[C@@H](Cc2c[nH]c3ccccc23)C(=O)N[C@@H](CCNC(=O)OC(C)(C)C)C(=O)N[C@@H](Cc2cn(CC(=O)O)c3ccccc23)C(=O)N1C [Example 1002]
12	CCCC[C@H]1C(=O)N(C)[C@@H](CCCC)C(=O)N[C@@H](CC(C)C)C(=O)N[C@H](C(=O)NCC(=O)N[C@@H](Cc2cn(CCOCCOCCOCCOCCOCCOCCOCCOCCOCCOCCOCCNC(=O)CC[C@H](NC(=O)CCCCCCCCCCCCCCCCC(=O)OCC)C(=O)OC)nn2)C(=O)O)CSCC(=O)N[C@@H](Cc2ccc(O)cc2)C(=O)N(C)[C@@H](C)C(=O)N[C@@H](CC(N)=O)C(=O)N2CCC[C@H]2C(=O)N[C@@H](CN)C(=O)N[C@@H](CC(C)C)C(=O)N2C[C@H](O)C[C@H]2C(=O)N[C@@H](Cc2c[nH]c3ccccc23)C(=O)N[C@@H](CCN)C(=O)N[C@@H](Cc2cn(CC(=O)O)c3ccccc23)C(=O)N1C [Example 1005]
5.9	CCCC[C@H]1C(=O)N(C)[C@@H](CCCC)C(=O)N[C@@H](CC(C)C)C(=O)N[C@H](C(=O)NCC(=O)N[C@@H](Cc2cn(CCOCCOCCOCCOCCOCCOCCOCCOCCOCCOCCOCCNC(=O)CC[C@H](NC(=O)CCCCCCCCCCCCCCCCC(=O)O)C(=O)O)nn2)C(=O)O)CSCC(=O)N[C@@H](Cc2ccc(O)cc2)C(=O)N(C)[C@@H](C)C(=O)N[C@@H](CC(N)=O)C(=O)N2CCC[C@H]2C(=O)N[C@@H](CNC(=O)OCC)C(=O)N[C@@H](CC(C)C)C(=O)N2C[C@H](O)C[C@H]2C(=O)N[C@@H](Cc2c[nH]c3ccccc23)C(=O)N[C@@H](CCNC(=O)OCC)C(=O)N[C@@H](CC2=CC(CC(=O)O)c3ccccc32)C(=O)N1C (stereo partly drawn) [Example 1008]
12	CCCC[C@H]1C(=O)N(C)[C@@H](CCCC)C(=O)N[C@@H](CC(C)C)C(=O)N[C@H](C(=O)NCC(=O)N[C@@H](Cc2cn(CCOCCOCCOCCOCCOCCOCCOCCOCCOCCOCCOCCNC(=O)CC[C@H](NC(=O)CCCCCCCCCCCCCCCCC(=O)O)C(=O)O)nn2)C(=O)O)CSCC(=O)N[C@@H](Cc2ccc(O)cc2)C(=O)N(C)[C@@H](C)C(=O)N[C@@H](CC(N)=O)C(=O)N2CCC[C@H]2C(=O)N[C@@H](CNC(=O)OCC)C(=O)N[C@@H](CC(C)C)C(=O)N2C[C@H](O)C[C@H]2C(=O)N[C@@H](Cc2c[nH]c3ccccc23)C(=O)N[C@@H](CCN)C(=O)N[C@@H](CC2=CC(CC(=O)O)c3ccccc32)C(=O)N1C (stereo partly drawn) [Example 1009]
